Measurements reported in patent US11518747B2, “Solid forms of an N-terminal domain androgen receptor inhibitor and uses thereof” (ESSA Pharma, Inc., priority 2020, dated 2022).
≈ marks a conversion by molar mass, not a printed value.

Key:
[1] = system: Androgen-induced PSA-luciferase activity; test: Androgen-induced PSA (6.1 kb)-luciferase reporter assay in transiently transfected LNCaP cells; assay type: cell-based; conditions: Homo sapiens, R1881 1 nM, 24 h
Protocol: To determine the IC50, treatments were normalized to the maximum activity with androgen-induction (in the absence of test compounds, vehicle only) (Table 12).
Luciferase Assay: Lysates were thawed on ice then collected into V-bottom 96-well tissue culture plates. Lysates were centrifuged at 4° C. for 5 minutes at 4000 rpm. To measure luminescence of LNCaP cell lysates the Firefly Luciferase Assay System (Promega) was employed, according to manufacturer's protocol.
Comparisons between treatment and control groups were compared using Two-Way ANOVA with post-hoc Dunnett's and Tukey's tests. Differences were considered statistically significant at P values less than 0.05. Densitometric quantification of relative AR levels was determined by Image.

[2] = Equilibrium solubility acquired at 24 hours; assay type: physicochemical; conditions: organic solvent or mixture, thermodynamic from solid
[3] = Amorphous solubility by slow addition from organic stock into aqueous media (UV/Vis scattering, DLS); assay type: physicochemical; conditions: for solubility: kinetic from dmso stock
Source text: Solubility: Generally, the solubility of an amorphous form is higher than that of the corresponding crystal form, due to the lack of crystalline lattice forces in the amorphous state. Solubility of the amorphous form of Compound I was studied by slow addition of the amorphous form from an organic stock solution into the pH 6.5 phosphate-buffered saline (PBS) solution or 0.5% wt simulated intestinal fluid (SIF) in pH 6.5 PBS. When the amorphous solubility is reached, a drug-rich phase forms which typically scatters light (e.g., liquid-liquid phase separation or LLPS), which can be detected by scattering of UV/Visible light and/or by dynamic light scattering (DLS).
No scattering event prior to crystallization was observed.

[4] = Approximate solubility by solvent aliquot addition, visual inspection; assay type: physicochemical; conditions: organic solvent or mixture, thermodynamic from solid
Protocol: The approximate solubility of Compound I in various organic solvents was determined by adding solvent aliquots to weighed samples Compound I. Weighed samples of Compound I were treated with aliquots of the test solvents or solvent mixtures at ambient temperature. Complete dissolution of the test material was determined by visual inspection. Solubility was estimated based on the total solvent volume used to provide complete dissolution. The actual solubility may be greater than the value calculated because of the use of solvent aliquots that were too large or due to a slow rate of dissolution. If complete dissolution was not achieved during the experiment, the solubility is expressed as “less than” (<). If complete dissolution was achieved by only one aliquot addition, the value is reported as “larger than” (>).

[5] = Physical stability of solid forms (drying, storage, slurry; XRPD); assay type: physicochemical; conditions: for XRPD result after stirring: RT, 4 d
Protocol: Based on experimental conditions to generate Material B and its drying studies, without being bound to any theory, Material B could be a solvated material which can convert to Material C upon drying.
In order to evaluate the relative stability between Form A and Material C, a competitive slurry was performed. About equal amounts (by mass) of Material C (mixture w/some Form A) and Form A were added to acetone so that solids persisted and were stirred at room temperature for 9 days. Solids were isolated by centrifugation using Spin-X centrifuge tubes equipped with a 0.45 μm nylon filter. Beige solids were observed. […] Material C could be an anhydrous material.
Further analyses including ^1H NMR and TGA were also collected on this amorphous sample (Table 10). The ^1H NMR spectrum was consistent with the chemical structure of Compound I and contains trace amount of DCM. By TGA (FIG. 9), about 1.0 wt % loss is observed from 45-200° C., which is likely due to the residual DCM and moisture in the material. The dramatic change in the slope of the TGA thermogram starting at 280° C. (onset) is likely associated with the decomposition of the material. […] A repeated rotary evaporation attempt from DCM solution generated disordered Compound I Form A (FIG. 7, second spectrum from bottom) after the sample was secondary dried at ambient temperature under vacuum for 3 days, which provides further evidence that amorphous Compound I is not physically stable.
Crystallization studies were performed on this disordered material (Table 10) and solids were stirred in acetone and H2O for 4 days at ambient conditions. Both experiments generated crystalline Form A (FIG. 10, bottom two spectra).

[6] = Dynamic vapor sorption (DVS) analysis; assay type: physicochemical; design: Hysteresis: unit not given here
Protocol: In one embodiment, the crystalline forms are characterized by Dynamic Vapor Sorption (DVS). The DVS profile is typically expressed by a diagram plotting the sample relative humidity (RH) versus the change in mass (%). The DVS profile provides information on hygroscopicity of the crystalline form at different RH conditions.
DVS (dynamic vapor sorption) analysis was carried out on Form A (Table 2, FIG. 3).

[7] = target RH 95.0 %, sample RH 96.0 %

Question: With `CC(O)(CS(=O)(=O)c1ccc(F)cc1)C(=O)Nc1ccc(C#N)c(C(F)(F)F)c1` (stereo not drawn) [Bicalutamide] as the molecule, how does the IC50 [1] read?
Answer: 306 nM

Question: With `CC(C)(c1ccc(OCc2ccnc(NS(C)(=O)=O)n2)cc1)c1cc(Cl)c(OCCCl)c(C#N)c1` [Compound I, N-{4-[(4-{2-[3-chloro-4-(2-chloroethoxy)-5-cyanophenyl]propan-2-yl}phenoxy)methyl]pyrimidin-2-yl}methanesulfonamide] as the molecule, how does the solubility at 24 h ([2]; ACN) read?
Answer: 2040 µg/mL (≈ 3.81 mM)

Question: And the solubility at 24 h ([2]; DMSO)?
Answer: > 12000 µg/mL

Question: What about the solubility at 24 h ([2]; EtOAc) of the same molecule?
Answer: 1970 µg/mL (≈ 3.68 mM)

Question: What about the solubility at 24 h ([2]; EtOH) of the same molecule?
Answer: 170 µg/mL (≈ 0.317 mM)

Question: And the solubility at 24 h ([2]; MeOH)?
Answer: 210 µg/mL (≈ 0.392 mM)

Question: And the solubility at 24 h ([2]; acetone)?
Answer: 5300 µg/mL (≈ 9.9 mM)

Question: And the Crystalline solubility [3]?
Answer: very low

Question: What about the solubility ([4]; dioxane (printed 'dioxant'), dioxant, ambient temperature, read-out: Solubility) of the same molecule?
Answer: > 107000 µg/mL

Question: And the solubility ([4]; DCM, ambient temperature, read-out: Solubility)?
Answer: 20000 µg/mL (≈ 37.4 mM)

Question: And the solubility ([4]; DMA, ambient temperature, read-out: Solubility)?
Answer: > 79000 µg/mL

Question: And the solubility ([4]; Et2O, ambient temperature, read-out: Solubility)?
Answer: < 2000 µg/mL

Question: What about the solubility ([4]; MEK, ambient temperature, read-out: Solubility) of the same molecule?
Answer: 6000 µg/mL (≈ 11.2 mM)

Question: And the solubility ([4]; MTBE, ambient temperature, read-out: Solubility)?
Answer: < 1000 µg/mL

Question: What about the solubility ([4]; NMP, ambient temperature, read-out: Solubility) of the same molecule?
Answer: > 117000 µg/mL

Question: And the solubility ([4]; THF, ambient temperature, read-out: Solubility)?
Answer: 54000 µg/mL (≈ 101 mM)

Question: And the solubility ([4]; iPrOAc, ambient temperature, read-out: Solubility)?
Answer: < 1000 µg/mL

Question: And the solubility ([4]; p-dioxane, from observations on samples at much larger scales, read-out: Approximate solubility)?
Answer: 35000 to 103000 µg/mL (≈ 65.4 to 192 mM)

Question: What about the solubility ([4]; toluene, ambient temperature, read-out: Solubility) of the same molecule?
Answer: 1000 µg/mL (≈ 1.87 mM)

Question: And the IC50 [1]?
Answer: 535 nM

Question: Which “XRPD result after stirring” value ([5]; H2O) does the source give for `CC(C)(c1ccc(OCc2ccnc(NS(C)(=O)=O)n2)cc1)c1cc(Cl)c(OCCCl)c(C#N)c1` [Disordered] here?
Answer: Form A

Question: What about the “XRPD result after stirring” value ([5]; acetone) of the same molecule?
Answer: Form A

Question: For `CC(C)(c1ccc(OCc2ccnc(NS(C)(=O)=O)n2)cc1)c1cc(Cl)c(OCCCl)c(C#N)c1` [Form A, N-{4-[(4-{2-[3-chloro-4-(2-chloroethoxy)-5-cyanophenyl]propan-2-yl}phenoxy)methyl]pyrimidin-2-yl}methanesulfonamide], which “Solids recovered after DVS analysis, by XRPD” value ([6]; after DVS cycle) is on record?
Answer: consistent with Form A

Question: And the “Total weight gain during sorption” value ([6]; from 5% to 95% RH)?
Answer: 5.474%

Question: And the “Weight gain during sorption” value ([6]; from 55% to 85% RH)?
Answer: 1.978 wt %

Question: And the “Weight gain during sorption” value ([6]; from 85% RH to 95% RH)?
Answer: 3.106 wt %

Question: What about the “Weight loss during desorption” value ([6]; from 95% RH to 5% RH) of the same molecule?
Answer: 5.472%

Question: And the “Sorp Mass Change” value ([6]; target RH 5.0 %, sample RH 4.9 %)?
Answer: 0.000%

Question: And the “Desorp Mass Change” value ([6]; target RH 5.0 %, sample RH 5.4 %)?
Answer: 0.002%

Question: What about the Hysteresis ([6]; target RH 15.0 %) of the same molecule?
Answer: 0.013

Question: What about the “Sorp Mass Change” value ([6]; target RH 15.0 %, sample RH 15.4 %) of the same molecule?
Answer: 0.055%

Question: What about the “Desorp Mass Change” value ([6]; target RH 15.0 %, sample RH 16.1 %) of the same molecule?
Answer: 0.060%

Question: What about the Hysteresis ([6]; target RH 25.0 %) of the same molecule?
Answer: 0.036

Question: What about the “Sorp Mass Change” value ([6]; target RH 25.0 %, sample RH 24.9 %) of the same molecule?
Answer: 0.111%

Question: And the “Desorp Mass Change” value ([6]; target RH 25.0 %, sample RH 25.6 %)?
Answer: 0.146%

Question: And the Hysteresis ([6]; target RH 45.0 %)?
Answer: 0.474

Question: And the “Sorp Mass Change” value ([6]; target RH 45.0 %, sample RH 44.8 %)?
Answer: 0.242%

Question: And the “Desorp Mass Change” value ([6]; target RH 45.0 %, sample RH 45.6 %)?
Answer: 0.716%

Question: And the Hysteresis ([6]; target RH 55.0 %)?
Answer: 0.650

Question: And the “Sorp Mass Change” value ([6]; target RH 55.0 %, sample RH 54.5 %)?
Answer: 0.390%

Question: What about the “Desorp Mass Change” value ([6]; target RH 55.0 %, sample RH 55.5 %) of the same molecule?
Answer: 1.040%

Question: What about the Hysteresis ([6]; target RH 65.0 %) of the same molecule?
Answer: 0.452

Question: And the “Desorp Mass Change” value ([6]; target RH 65.0 %, sample RH 65.6 %)?
Answer: 1.438%

Question: What about the “Sorp Mass Change” value ([6]; target RH 65.0 %, sample RH […]) of the same molecule?
Answer: 0.906%

Question: What about the Hysteresis ([6]; target RH 75.0 %) of the same molecule?
Answer: 0.364

Question: What about the “Sorp Mass Change” value ([6]; target RH 75.0 %, sample RH 74.5 %) of the same molecule?
Answer: 1.567%

Question: And the “Desorp Mass Change” value ([6]; target RH 75.0 %, sample RH 75.5 %)?
Answer: 1.931%

Question: And the Hysteresis ([6]; target RH 85.0 %)?
Answer: 0.604

Question: And the “Sorp Mass Change” value ([6]; target RH 85.0 %, sample RH 84.7 %)?
Answer: 2.368%

Question: And the “Desorp Mass Change” value ([6]; target RH 85.0 %, sample RH 85.8 %)?
Answer: 2.072%

Question: And the “Desorp Mass Change” value [6, 7]?
Answer: 5.474%

Question: What about the “Sorp Mass Change” value [6, 7] of the same molecule?
Answer: 5.474%

Question: What about the Hysteresis ([6]; target RH […]) of the same molecule?
Answer: 0.108

Question: And the “Sorp Mass Change” value ([6]; target RH […], sample RH 34.5 %)?
Answer: 0.169%

Question: And the “Desorp Mass Change” value ([6]; target RH […], sample RH 35.3 %)?
Answer: 0.277%

Question: And the Hygroscopicity ([6]; within 5%-55% RH)?
Answer: low hygroscopicity

Question: And the Hygroscopicity ([6]; within 55%-85% RH)?
Answer: limited hygroscopicity

Question: What about the Hygroscopicity ([6]; within 85%-95% RH) of the same molecule?
Answer: significant hygroscopicity

Question: What about the “Relative stability, competitive slurry” value ([5]; Material C (with some Form A) and Form A in acetone, room temperature, 9 days) of the same molecule?
Answer: more stable than Material C

Question: For `CC(C)(c1ccc(OCc2ccnc(NS(C)(=O)=O)n2)cc1)c1cc(Cl)c(OCCCl)c(C#N)c1` [Material B], which Stability upon drying [5] is on record?
Answer: unstable upon drying

Question: And the “XRPD result after drying” value ([5]; 65-66° C., vacuum, 5 d)?
Answer: mixture of Form A and Material C

Question: And the “XRPD result after drying” value ([5]; RT (ambient), on filter paper, 3 d)?
Answer: disordered Material C

Question: For `CC(C)(c1ccc(OCc2ccnc(NS(C)(=O)=O)n2)cc1)c1cc(Cl)c(OCCCl)c(C#N)c1` [Material D], which “XRPD result after drying” value ([5]; 50-52° C., vacuum, 3 d) is on record?
Answer: desolvate into Form A

Question: Which IC50 [1] does the source give for `CC(C)(c1ccc(OC[C@H](O)CNS(C)(=O)=O)cc1)c1cc(Cl)c(OC[C@H](O)CCl)c(Cl)c1` [Reference Compound X] here?
Answer: 1050 nM

Question: What does the source list for `CC(C)(c1ccc(OCc2ccnc(NS(C)(=O)=O)n2)cc1)c1cc(Cl)c(OCCCl)c(C#N)c1` [amorphous form of Compound I]?
Answer: solubility ([3]; 0.5% wt simulated intestinal fluid in PBS, fassgf or other biorelevant, 0.5% SIF (pH 6.5)): > 25 µg/mL; solubility ([3]; phosphate-buffered saline, aqueous buffer, pH 6.5 PBS): > 2.5 µg/mL; Amorphous solubility relative to crystalline solubility ([3]; simulated intestinal media): at least 20 ×; XRPD result after storage ([5]; ambient (RT), desiccator, about 10 days): disordered Form A; Physical stability ([5]; ambient temperature): physically not stable
